According to the supplement of paper PMC10307832:

Key:
Test in all cases: relative viability (nuclei count vs DMSO), 5 days (fraction); higher = more cells survive
RAF265 + Decitabine = compound: Cn1c(Nc2ccc(C(F)(F)F)cc2)nc2cc(Oc3ccnc(-c4ncc(C(F)(F)F)[nH]4)c3)ccc21 [RAF265] + Nc1ncn([C@H]2C[C@H](O)[C@@H](CO)O2)c(=O)n1 [Decitabine] (partner 2 µM)
In short: (§1)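 Values are medians from duplicate plates. Each reflects relative viability, defined as the nuclei count of treated wells over that of vehicle wells. Lung cancer cell lines in 1536-well plates were pin-tool dosed one day after seeding with one drug alone or with a fixed anchor-drug dose plus five library-drug doses (not always all listed) in √10 steps, then fixed, stained and imaged at 4× after 5 days.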

IPA-3 + Alpelisib = compound: C1=CC=C2C(=C1)C=CC(=C2SSC3=C(C=CC4=CC=CC=C43)O)O [IPA-3] + Cc1nc(NC(=O)N2CCC[C@H]2C(N)=O)sc1-c1ccnc(C(C)(C)C(F)(F)F)c1 [Alpelisib] (partner 2 µM)
In short: as §1

IPA-3 + Trametinib = compound: C1=CC=C2C(=C1)C=CC(=C2SSC3=C(C=CC4=CC=CC=C43)O)O [IPA-3] + CC(=O)Nc1cccc(-n2c(=O)n(C3CC3)c(=O)c3c(Nc4ccc(I)cc4F)n(C)c(=O)c(C)c32)c1 [Trametinib] (partner 0.02 µM)
In short: as §1

IPA-3 + Pemetrexed = compound: C1=CC=C2C(=C1)C=CC(=C2SSC3=C(C=CC4=CC=CC=C43)O)O [IPA-3] + Nc1nc2[nH]cc(CCc3ccc(C(=O)N[C@@H](CCC(=O)O)C(=O)O)cc3)c2c(=O)[nH]1 [Pemetrexed] (partner 0.2 µM)
In short: as §1

UMC-11 gave a relative viability (RAF265 + Decitabine; first compound 0.01 µM) of 0.621, a relative viability (RAF265 + Decitabine; first compound 0.03162 µM) of 0.404 and a relative viability (RAF265 + Decitabine; first compound 0.1 µM) of 0.621. The relative viability (RAF265 + Decitabine; first compound 0.3162 µM) was 0.604, the relative viability (RAF265 + Decitabine; first compound 1 µM) was 0.363 and the relative viability (IPA-3 + Alpelisib; first compound 0.2 µM) was 1.22. For the same cell line, the relative viability (IPA-3 + Alpelisib; first compound 0.6325 µM) was 0.962, the relative viability (IPA-3 + Alpelisib; first compound 2 µM) was 1.07 and the relative viability (IPA-3 + Alpelisib; first compound 6.325 µM) was 1.01. It also gave a relative viability (IPA-3 + Alpelisib; first compound 20 µM) of 1.07, a relative viability (IPA-3 + Trametinib; first compound 0.2 µM) of 0.804 and a relative viability (IPA-3 + Trametinib; first compound 0.6325 µM) of 0.666. For the same cell line, the relative viability (IPA-3 + Trametinib; first compound 2 µM) was 0.677, the relative viability (IPA-3 + Trametinib; first compound 6.325 µM) was 0.6 and the relative viability (IPA-3 + Trametinib; first compound 20 µM) was 0.794. For the same cell line, the relative viability (IPA-3 + Pemetrexed; first compound 0.2 µM) was 0.869, the relative viability (IPA-3 + Pemetrexed; first compound 0.6325 µM) was 0.756 and the relative viability (IPA-3 + Pemetrexed; first compound 2 µM) was 0.83. The relative viability (IPA-3 + Pemetrexed; first compound 6.325 µM) was 0.769 and the relative viability (IPA-3 + Pemetrexed; first compound 20 µM) was 0.943.
